Measurements: patent US8404650B2, “Methods of treating cancer with doxazolidine and prodrugs thereof” (priority 2005, dated 2013)
Read-outs that look alike come from different tables or passages of the source.

Tests used:
[1] = test system: MCF-7/Adr cells; assay: Drug uptake by MCF-7/Adr cells, flow cytometry of drug fluorescence; assay type: cell-based; conditions: for Drug uptake relative to Doxorubicin: MCF-7/Adr, 500 nM (equivalents), up to 3 h
Method: Drug uptake was measured by flow cytometery. Cells were dissociated with trypsin/EDTA, counted, and suspended in growth media to a concentration of 1×10^5 cells/mL. This cell suspension was dispensed in 2.5 mL aliquots into 6-well tissue culture plates. Plates were then incubated for 24 h at 37° C. in a humidified atmosphere of 5% CO2 and 95% air. The growth media was replaced with 2 mL of fresh growth media prior to addition of the drug. Doxaz, DoxF, and Doxorubicin HCl were dissolved in DMSO each at a concentration of 50 μM. The concentration was then corrected by measuring the solution absorbance at 480 nm (ε=11,500 M^−1 cm^−1). Drug solution (20 μL) was added to an individual well and was incubated for 5 min, 15 min, 30 min, 1 h, 2 h or 3 h at 37° C. in a humidified atmosphere of 5% CO2 and 95% air. All drug treatments were performed so all treatment times would end simultaneously. After treatment, culture media was removed, cells washed once with 0.5 mL HBSS, washed once with 0.5 mL trypsin/EDTA, and 0.5 mL trypsin/EDTA was added and cells were incubated for 5 min. After all cells were trypsinized, cells were aspirated with 1.5 mL cold D-PBS (Dulbecco's phosphate buffered saline, no calcium or magnesium) and this solution was added to 3 mL of cold D-PBS (4.5 mL total D-PBS) in a conical vial. Cells were centrifuged at 200 g for 5 min, and D-PBS was decanted off. Cells were washed once more in 5 mL cold D-PBS, centrifuged at 200 g for 5 min and D-PBS was decanted off. […] Cells were analyzed with excitation at 488 nm (15 mW Ar ion laser), with emission monitored between 570 nm and 600 nm. Instrument settings were optimized for the cell line and held constant for all experiments; for the anthracycline fluorescence analysis, 10,000 cells were analyzed for each sample. The data are presented as the mean fluorescence for each condition.
Uptake of pentyl PABC-Doxaz and Dox by multidrug resistant MCF-7/Adr breast cancer cells and SK-HEP-1 liver cancer cells in the presence of fetal bovine serum was determined by flow cytometry using drug fluorescence as a measure of drug in cells.

[2] = test system: H9c2(2-1) rat cardiomyocytes; assay: Growth inhibition of rat cardiomyocytes as a measure of cardiotoxicity; assay type: cell-based; conditions: for Toxicity to cardiomyocytes compared with Doxorubicin: rat cardiomyocytes; for IC50: Rattus norvegicus
Method: Biological activity of simple Doxazolidine carbamates. Since the prodrug carbamates were designed to be activated by carboxylesterases CES1 (hCE1) and/or CES2 (hiCE), cell lines of interest were measured for expression of the respective mRNAs using reverse transcription (RT) followed by PCR (polymerase chain reaction). Cancer cell lines investigated included SHP-77 resistant small cell lung, DU-145 prostate, MCF-7 sensitive breast, MCF-7/Adr resistant breast, SK-HEP-1 liver, and Hep G2 liver cells. As a measure of possible cardiotoxicity, H9c2(2-1) rat cardiomyocytes were also investigated. Cardiotoxicity is relevant because the ultimate product of metabolism and subsequent hydrolysis of these carbamates is doxorubicin, which is cardiotoxic. […] Additionally, the rat cardiomyocytes, H9c2(2-1), also express more CES2 than CES1.
Cell growth inhibition experiments initially focused on MCF-7, MCF-7/Adr, SK-HEP-1, and Hep G2 cancer cells as well as rat cardiomyocytes as a measure of cardiotoxicity and Vero cells (green monkey kidney cells) as an additional measure of normal cell toxicity. The butyl and pentyl carbamates inhibited the growth of MCF-7, MCF-7/Adr, and SK-HEP-1 cell lines with a 24 h drug treatment period with some selectivity for cancer cells over cardiomyocytes relative to growth inhibition by Dox as shown in Table 2. […] The relative inactivity of the ethyl carbamate may indicate that a substantial lipophilic interaction is required at the active site of the carboxylesterases to hold the Doxaz substrate.
Biological activity of Doxazolidine carbamates with self-eliminating spacer. […] SHP-77 small cell lung cancer cells were also of interest because they express modest amounts of both enzymes. Inhibition of the growth of cardiomyocytes was used as a measure of cardiotoxicity, and inhibition of the growth of Vero cells, green monkey kidney cells, was again used as another measure of toxicity to normal cells. They also show more activity against the cancer cells that express higher levels of CES1. Of particular note is the higher activity against Hep G2 cells than against SK-HEP-1 cells. […] The low toxicity of pentyl PABC-Doxaz to cardiomyocytes relative to the toxicity of Dox is encouraging and consistent with the low level of expression of CES1 in cardiomyocytes.
A more thorough characterization of the growth inhibition of a variety of cancer cells as well as rat cardiomyocytes by Formula IV (aFK-PABC-Doxaz) was evaluated in comparison with inhibition of growth by Doxaz, Dox and aFK-PABC-Dox. Cells were treated with drug for 3 h and colony growth was measured at 3 to 5 days when cells reached about 80% confluence. The cancer cells included one prostate cancer cell line (DU-145), three related breast cancer cell lines (MCF-7, MCF-7/Adr, and MCF-7 uPA), and one pancreatic cancer cell line (Mia PaCa-2). The breast cancer cell lines represent the multi-drug resistant (MDR) phenotype with MCF-7/Adr cells and a cell line that is transfected with the gene for urokinase plasminogen activator (uPA), the primary enzyme responsible for cleavage of plasminogen to plasmin. Rat cardiomyocytes served as a model for comparison of drug cardiotoxicity. Growth inhibition was also measured with added plasmin. aFK-PABC-Doxaz inhibited the growth of most of the cancer cells 0.5 log or more better than did aFK-PABA-Dox. Although not as dramatic, this differential response paralleled the differential response between Doxaz and Dox which is approximately two logs except for the MDR expressing, MCF-7/Adr cells which show more than three logs differential response. […] Addition of 0.01 unit/mL of plasmin has no effect on the activity of Dox but increases the activity of both aFK-PABC-Doxaz and aFK-PABC-Dox, in some cases by more than a log. Addition of 0.01 unit/mL plasminogen increases the activity of aFK-PABC-Doxaz on average by 0.3 log. […]

[3] = H9c2, 3 h, read-out: Growth inhibition IC50, H9c2(2-1), 3 h

Row | SMILES | Drug uptake relative to Doxorubicin [1] | Toxicity to cardiomyocytes compared with Doxorubicin [2] | IC50 [2, 3] [nM] | further results
1 | COc1cccc2c1C(=O)c1c(O)c3c(c(O)c1C2=O)C[C@@](O)(C(=O)CO)C[C@@H]3OC1CC2C(OCN2CN2COC3C(C)OC(O[C@H]4C[C@](O)(C(=O)CO)Cc5c(O)c6c(c(O)c54)C(=O)c4c(OC)cccc4C6=O)CC32)C(C)O1 (some centres unmarked) [DoxF, Doxoform, reference compound] | significantly more | no more toxic to cardiomyocytes than Doxorubicin | – | –
2 | COc1cccc2c1C(=O)c1c(O)c3c(c(O)c1C2=O)C[C@@](O)(C(=O)CO)C[C@@H]3O[C@H]1C[C@@H]2NCO[C@@H]2[C@H](C)O1 [Doxaz, Doxazolidine] | significantly more | no more cardiotoxic than Doxorubicin | 31.6 | –
3 | COc1cccc2c1C(=O)c1c(O)c3c(c(O)c1C2=O)C[C@@](O)(C(=O)CO)C[C@@H]3O[C@H]1C[C@H](N)[C@H](O)[C@H](C)O1 [Doxorubicin, reference compound] | – | – | 31.6 | IC50 ([2]; H9c2, 24 h, read-out: Growth inhibition IC50, H9c2(2-1), 24 h): 20 nM; IC50 ([2]; H9c2, read-out: IC50 Rat Cardio., top line of the cell): 20 nM
4 | COc1cccc2c1C(=O)c1c(O)c3c(c(O)c1C2=O)C[C@@](O)(C(=O)CO)C[C@@H]3O[C@H]1C[C@H]2[C@H](OCN2C(=O)OCc2ccc(NC(=O)[C@H](CCCCN)NC(=O)[C@H](Cc3ccccc3)NC(=O)[C@@H](C)N)cc2)[C@H](C)O1 [Formula IV, D-Ala-L-Phe-L-Lys-p-aminobenzyloxycarbonyl-Doxaz] | – | – | – | IC50 ([2]; H9c2, read-out: IC50 Rat Cardio. + plasmin): 40 nM
5 | CCCCCOC(=O)Nc1ccc(COC(=O)N2COC3C(C)OC(OC4CC(O)(C(=O)CO)Cc5c(O)c6c(c(O)c54)C(=O)c4c(OC)cccc4C6=O)CC32)cc1 (centres unmarked) [Pentyl PABC-Doxaz, Pentyl 4-(N-doxazolidinylcarbonyloxymethyl)phenylcarbamate] | – | – | – | Uptake relative to Dox, MCF-7/Adr ([1]; in the presence of fetal bovine serum): taken up much better; Growth inhibition IC50, H9c2(2-1), 24 h ([2]; 24 h drug treatment, crystal violet): −6.2 ± 0.2 log of the molar concentration
